Consider 3 molecules from PMC9298070, “Lack of a Clinically Meaningful Drug Interaction Between the HIV‐1 Antiretroviral Agents Islatravir, Dolutegravir, and Tenofovir Disoproxil Fumarate” (Clinical Pharmacology in Drug Development, 2021).

Broadly, the Cmax is the maximum level reached in the sampled fluid or tissue. One may read the Tmax as the time from dosing to the highest level.

Details of data set [1]: method as in PMID 19884365. Particulars: once-daily multiple dosing; cited from earlier work.
Data set [2] is described as follows: Plasma pharmacokinetics in phase 1, open-label, fixed-sequence, 2-period drug interaction trial (MK-8591-005). The conditions noted are these: for C24, GMR (90%CI): Islatravir + Dolutegravir + TDF / Dolutegravir + TDF; for half-life / concentration at 24 h / AUC / Cmax / Tmax: human, oral; for half-life / concentration at 24 h / Cmax, GM (95%CI) / tmax, median (min‐max) / Apparent terminal t1/2, geometric mean (geometric CV %) / AUC / Cmax / Tmax: plasma, N = 12; for Tmax: read-out: tmax, median (min‐max). The class given is in vivo, human. The protocol:
(§1) This was a phase 1, open‐label, fixed‐sequence, 2‐period trial in adults without HIV (protocol MK‐8591‐005). In period 1, participants received a single oral dose of 20 mg islatravir. In period 2, participants received multiple oral doses of 50 mg dolutegravir and 300 mg TDF once daily for 11 consecutive days (days 1‐11), with a single oral dose of 20 mg islatravir coadministered on day 8. There was a washout period of ≥7 days between islatravir dosing in period 1 and the first dose of dolutegravir and TDF in period 2 (Figure 1).
Blood samples for islatravir plasma analysis were collected before dosing and at selected time points over 96 hours following administration of islatravir on day 1 of period 1 and day 8 of period 2. In period 2, samples taken at 24, 48, and 72 hours for islatravir plasma analysis were collected before dose administration of dolutegravir and TDF. Blood samples for plasma analysis of dolutegravir and tenofovir were collected before dosing on days 1, 7, and 8 of period 2 and at selected time points over 24 hours after dosing on days 7 and 8 of period 2. The 24 hour samples for dolutegravir and tenofovir analysis for days 7 and 8 were collected before dosing of dolutegravir and TDF.
Plasma concentrations of islatravir, dolutegravir, and tenofovir were determined by inVentiv Health Clinique (Québec City, Québec, Canada) using validated high‐performance liquid chromatography coupled to tandem mass spectrometry methods.
Islatravir (m/z 294.000/154.000) was extracted using an automated protein precipitation method using [^13C,^15N3]‐ISL as internal standard (m/z 297.800/158.000). The extracted samples were assessed on a system equipped with a X Select HSS T3 C18, 50×2.1 mm, 2.5 μm column with water/acetonitrile with formic acid mobile phase. […] The lower limit of quantitation for islatravir was 0.10 ng/mL, with an analytical range of 0.10 to 100.00 ng/mL.
Dolutegravir (m/z 420.200/277.200) was extracted using an automated protein precipitation method using [C^13‐d5]‐dolutegravir as the internal standard (m/z 426.300/277.300). The extracted samples were assessed on a system equipped with an ACE 3 C18, 30 × 4.6 mm, 3 μm column (Avantor, Radnor, Pennsylvania) with water/methanol with ammonium formate and formic acid mobile phase. […] The lower limit of quantitation for dolutegravir was 10.00 ng/mL, with an analytical range of 10.00 to 10 000.00 ng/mL.
Tenofovir (m/z 288.200/176.200) was extracted using an automated solid phase extraction using tenofovir‐d6 as internal standard (m/z 294.100/182.300). The extracted samples were assessed on a system equipped with an Atlantis dC18, 75 × 4.6 mm, 3 μm column (Waters Corp., Milford, Massachusetts) with water/acetonitrile with ammonium formate and formic acid mobile phase. […] The lower limit of quantitation for tenofovir was 0.50 ng/mL, with an analytical range of 0.50 to 500.00 ng/mL.
Plasma islatravir, dolutegravir, and tenofovir pharmacokinetics were summarized descriptively. Pharmacokinetic parameter values were calculated using the software Phoenix WinNonlin version 6.3 (Certara, Princeton, New Jersey). Cmax, C24, and tmax values were obtained directly from the observed plasma concentration–time data.

Data set [3] is described as follows: Safety and tolerability in the phase 1 trial (adverse event reports, laboratory tests, ECG, vital signs). The conditions noted are these: after administration of dolutegravir and TDF; of 12 participants. In kind it is in vivo, human. The protocol:
as §1
Safety and tolerability were monitored by repeated clinical and laboratory evaluations for the duration of the trial. Safety evaluations included adverse event (AE) reports, laboratory tests, 12‐lead electrocardiograms, and vital signs.
Incidence of adverse experiences was descriptively summarized.

For data set [4] the following is noted: in vivo; cited from earlier work.
The mark [5] stands for this setting: steady state, 50 mg dolutegravir + 300 mg TDF once daily days 1-7, period 2, without islatravir, read-out: Apparent terminal t1/2, geometric mean (geometric CV %) (converted).
Where [6] appears, read: steady state, 50 mg dolutegravir + 300 mg TDF once daily days 1-7, period 2, without islatravir, read-out: Apparent terminal t1/2, AM (SD) (converted).
Where [7] appears, read: steady state, 50 mg dolutegravir + 300 mg TDF once daily days 1-7, period 2, without islatravir, read-out: C24, AM (SD).
The mark [8] stands for this setting: steady state, 50 mg dolutegravir + 300 mg TDF once daily days 1-7, period 2, without islatravir, read-out: C24, GM (95%CI).
The mark [9] stands for this setting: 50 mg dolutegravir + 300 mg TDF once daily with single 20 mg islatravir on day 8, period 2, read-out: C24, AM (SD).
The mark [10] stands for this setting: 50 mg dolutegravir + 300 mg TDF once daily with single 20 mg islatravir on day 8, period 2, read-out: C24, GM (95%CI).
[11] abbreviates: steady state, 50 mg dolutegravir + 300 mg TDF once daily days 1-7, period 2, without islatravir.
[12] abbreviates: 50 mg dolutegravir + 300 mg TDF once daily with single 20 mg islatravir on day 8, period 2.

Where a name gives a salt, the structure may show the parent alone. Read-outs that look alike come from different tables or passages of the source. Bounds are passed on as bounds.

On to `C[C@@H]1CCO[C@H]2Cn3cc(C(=O)NCc4ccc(F)cc4F)c(=O)c(O)c3C(=O)N12` [Dolutegravir], for which the “time to steady‐state concentrations” value in data set [1] is listed as ≤ 5 days. Further, in data set [2], the “C24, GMR (90%CI)” value is 1.10 (1.03‐1.17). For the same molecule, the half-life in data set [2] (setting [5]) was 15.2 h; in data set [2] (setting [6]) it was 15.3 h; in data set [2] (50 mg dolutegravir + 300 mg TDF once daily with single 20 mg islatravir on day 8, period 2, read-out: Apparent terminal t1/2, AM (SD) (converted)), 15.7 h. In addition, the concentration at 24 h in data set [2] (setting [7]) came to 1220 ng/mL; in data set [2] (setting [8]), 1120 ng/mL; in data set [2] (setting [9]), 1310 ng/mL; in data set [2] (setting [10]), 1240 ng/mL. Moreover, the “Cmax, GM (95%CI)” value was 3500 (2770‐4430) ng/mL in data set [2] (setting [11]) and 3570 (2950‐4330) ng/mL in data set [2] (setting [12]). The “tmax, median (min‐max)” value is 2.50 (0.50‐4.13) h in data set [2] (setting [11]) and 3.00 (1.00‐6.03) h in data set [2] (setting [12]). In addition, the “Apparent terminal t1/2, geometric mean (geometric CV %)” value in data set [2] (setting [12]) is given as 15.5 (16.2) h. The “participants reporting AEs considered drug-related” value in data set [3] is 3 participants.
In the case of `CC(C)OC(=O)OCOP(=O)(CO[C@H](C)Cn1cnc2c(N)ncnc21)OCOC(=O)OC(C)C` [TDF, tenofovir disoproxil fumarate], the “participants reporting AEs considered drug-related” value in data set [3] stood at 3 participants.
As to `C[C@H](Cn1cnc2c(N)ncnc21)OCP(=O)(O)O` [Tenofovir], the “time to steady‐state concentrations” value in data set [4] was ≤ 7 days. Moreover, the “C24, GMR (90%CI)” value in data set [2] was 1.05 (0.97‐1.14). Further, the half-life in data set [2] (setting [5]) was 13.7 h; in data set [2] (setting [6]), 13.8 h. Moreover, the AUC came to 2250 ng·h/mL in data set [2] (steady state, 50 mg dolutegravir + 300 mg TDF once daily days 1-7, period 2, without islatravir, read-out: AUC0‐24, AM (SD)); 2220 ng·h/mL in data set [2] (steady state, 50 mg dolutegravir + 300 mg TDF once daily days 1-7, period 2, without islatravir, read-out: AUC0‐24, GM (95%CI)); 2350 ng·h/mL in data set [2] (50 mg dolutegravir + 300 mg TDF once daily with single 20 mg islatravir on day 8, period 2, read-out: AUC0‐24, AM (SD)); 2330 ng·h/mL in data set [2] (50 mg dolutegravir + 300 mg TDF once daily with single 20 mg islatravir on day 8, period 2, read-out: AUC0‐24, GM (95%CI)). Also, the concentration at 24 h in data set [2] (setting [7]) was determined as 43.6 ng/mL; in data set [2] (setting [8]) it was 42.6 ng/mL; in data set [2] (setting [9]), 45.3 ng/mL; in data set [2] (setting [10]), 44.8 ng/mL. The Cmax in data set [2] (steady state, 50 mg dolutegravir + 300 mg TDF once daily days 1-7, period 2, without islatravir, read-out: Cmax, AM (SD)) is 346 ng/mL; in data set [2] (steady state, 50 mg dolutegravir + 300 mg TDF once daily days 1-7, period 2, without islatravir, read-out: Cmax, GM (95%CI)), 339 ng/mL; in data set [2] (50 mg dolutegravir + 300 mg TDF once daily with single 20 mg islatravir on day 8, period 2, read-out: Cmax, AM (SD)) it was 343 ng/mL; in data set [2] (50 mg dolutegravir + 300 mg TDF once daily with single 20 mg islatravir on day 8, period 2, read-out: Cmax, GM (95%CI)), 333 ng/mL. Further, the results for the Tmax in data set [2] (setting [11]) and in data set [2] (setting [12]) were 1 h and 1.01 h, respectively. Also, in data set [2] (setting [12]), the “Apparent terminal t1/2, geometric mean (geometric CV %)” value is 13.2 (11.0) h.
